In patent US20260144879A1, “ANTI-VIRAL AND HEPATIC-TARGETED DRUGS” (AI-BIOPHARMA, priority 2019, published 2026):

How the values were obtained:
[1] = system: HBV (genotype D, serotype ayw, Galibert's strain); experiment: Quantification of virion associated secreted HBV DNA in supernatant of HBV-infected differentiated HepaRG (dHepaRG) cells by qPCR, % of replication vs DMSO; type: cell-based, hepatitis B virus; conditions: 1 μM compound, 7 days treatment, DMSO = 100%; for activity at 1 µM: Hepatitis B virus, HepaRG, 168 h, read-out: dHepaRG HBV % of replication at 1 μM compared to DMSO
Experimental: (§1) From Methods in Lucifora J. et al. (Direct antiviral properties of TLR ligands against HBV replication in immune-competent hepatocytes, Science Scientific Reports, 2018, 8:5390): • 1) HepaRG cells were cultured, as described previously by Gripon P. et al. (Infection of a human hepatoma cell line by hepatitis B virus. Proc Natl Acad Sci USA, 2002, 99, p 15655-15660) on pages 15655 and 15656, in Williams E medium supplemented with 10% fetal calf serum, 50 U penicillin/streptomycin (Gibco-Invitrogen) ml^−1, […] ml^−1 and 5×10^−7 M hydrocortisone hemisuccinate (Roche Diagnostics and Boehringer Mannheim, respectively). The cell cultures were maintained in a 5% CO2 atmosphere at 37° C. During the proliferation phase, culture medium was renewed every 2 days. For differentiation and infection, cells were maintained for 2 weeks in standard medium and then for at least 2 more weeks in medium supplemented with 1.8-2.0% DMSO (Sigma). • 2) Primary Human Hepatocytes (PHH) were freshly prepared from human liver resection as previously described by Lecluyse, E. L. & Alexandre, E. (Isolation and culture of primary hepatocytes from resected human liver tissue. Methods Mol Biol, 2010, 640, p 57-82, https://doi.org/10.1007/978-1-60761-688-7_3) on page 63 paragraph 3. “Methods” from section 3.1. through 3.6.2. page 77. All experimental procedures were conducted in conformity with French laws and regulations and were approved by the National Ethics Committee. • 3) Cell viability was measured by both neutral red and MTS (CellTiter 96 Aqueous One Solution cell proliferation assay; Promega) tests. • 4) HBV inoculum (genotype D, serotype ayw, Galibert's strain referred as NC_003977.2 at NCBI) was prepared from HepAD38 (see Ladner, S. K. et al., Inducible expression of human hepatitis B virus (HBV) in stably transfected hepatoblastoma cells: a novel system for screening potential inhibitors of HBV replication. Antimicrob Agents Chemother, 1997, 41, p 1715-1720) supernatants by polyethylene-glycol-MW-8000 (PEG8000, SIGMA) precipitation (8% final) as previously described by Luangsay, S. et al. (Early inhibition of hepatocyte innate responses by hepatitis B virus. J Hepatol, 2015, 63, p 1314-1322, https://doi.org/10.1016/j.jhep.2015.07.014).
(§2) Viral stocks with titer reaching at least 1×10^10 viral genome equivalent (vge)/mL were tested endotoxin free.
(§3) Differentiated HepaRG (dHepaRG) or PHH were infected by HBV at a multiplicity of infection of 100-200 vge/cell in culture medium containing 4% PEG 8000 (Sigma) for 16 h at 37° C. in 12- or six-well plates. At the end of the incubation period, cells were washed once with medium and then cultured in Williams E medium containing DMSO as indicated. In general infection was left for 7 days before any treatment was started, to allow replication reaching its maximum. • 5) Infected cell treatment with compounds of interest: • 5a: After 7 days of infection with the virus (day 0 to day 7), the dHepaRG cells were treated (3 treatments: day 7, day 10 and day 12) with a […] of the tested compound (diluted with sterile water from a 10 mM stock DMSO solution) or DMSO as reference negative control for 7 more days. • 5b: After 4 days of infection with the virus (day 0 to day 4), the PHH cells were treated (3 treatments: day 4, day 7 and day 9) with a […] of the tested compound (diluted with sterile water from a 10 mM stock DMSO solution) for 7 more days. • 6) Quantification of virion associated secreted HBV DNA in cell culture supernatant:
(§4) At the end of the experiment (7 days treatment) the supernatant of infected and treated cells (either dHepaRG or PHH or others) is collected. It is diluted 1/4 into sterile water (molecular biology quality) then treated for 30 minutes with RNAse (10 unit) and DNAse (10 unit) to remove non encapsidated material. […]

[2] = system: HBV (genotype D, serotype ayw, Galibert's strain); experiment: Quantification of virion associated secreted HBV DNA in supernatant of HBV-infected Primary Human Hepatocytes (PHH) by qPCR, % of replication vs DMSO; type: cell-based, hepatitis B virus; conditions: 1 μM compound, 7 days treatment, DMSO = 100%; for activity at 1 µM: Hepatitis B virus, Hepatocyte, 168 h, (*) n = 1, read-out: PHH HBV % of replication at 1 μM compared to DMSO
Experimental: as §1, §2, §3, §4

SMILES	activity at 1 µM [1] [%]	activity at 1 µM [2] [%]	dHepaRG HBV % of replication at 1 μM compared to DMSO [1]	PHH HBV % of replication at 1 μM compared to DMSO ([2]; (*) n = 1)
CCOC(=O)CC1COP(=O)(CO[C@H](C)Cn2cnc3c(NC(=O)CC(C)C)ncnc32)OC1 (stereo partly drawn) [Example 17, (R)-ethyl 2-(2-(((1-(6-(3-methylbutanamido)-9H-purin-9-yl)propan-2-yl)oxy)methyl)-2-oxo-1,3,2-dioxaphosphinan-5-yl)acetate]	30 to 50	≤ 30		
CC(C)OC(=O)CC1COP(=O)(CO[C@H](C)Cn2cnc3c(N)ncnc32)OC1 (single isomer, unassigned) [Example 3a]	≤ 30	≤ 30		
CCOC(=O)CCC1COP(=O)(CO[C@H](C)Cn2cnc3c(N)ncnc32)OC1 (stereo partly drawn) [Example 7, (R)-ethyl 3-(2-(((1-(6-amino-9H-purin-9-yl)propan-2-yl)oxy)methyl)-2-oxo-1,3,2-dioxaphosphinan-5-yl)propanoate]	50 to 80	50 to 80		
Nc1ncnc2c1ncn2CCOCP(=O)(O)O [ADF]			++ (50% < ++ ≤ 80%)	++ (50% < ++ ≤ 80%)
COC(=O)CC1COP(=O)(CO[C@H](C)Cn2cnc3c(N)ncnc32)OC1 (stereo partly drawn) [Example 1, (R)-methyl 2-(2-(((1-(6-amino-9H-purin-9-yl)propan-2-yl)oxy)methyl)-2-oxo-1,3,2-dioxaphosphinan-5-yl)acetate]	≤ 30	≤ 30		
CC(C)OC(=O)CC1COP(=O)(CO[C@H](C)Cn2cnc3c(NC(=O)C(C)C)ncnc32)OC1 (stereo partly drawn) [Example 21a, (R)-isopropyl 2-(2-(((1-(6-isobutyramido-9H-purin-9-yl)propan-2-yl)oxy)methyl)-2-oxido-1,3,2-dioxaphosphinan-5-yl)acetate]	≤ 30	≤ 30		
CC1COP(=O)(CO[C@H](C)Cn2cnc3c(N)ncnc32)OC1 (stereo partly drawn) [Example 5c, (R)-2-(((1-(6-amino-9H-purin-9-yl)propan-2-yl)oxy)methyl)-5-methyl-1,3,2-dioxaphosphinane 2-oxide]	> 80	30 to 50		
CCOC(=O)CC1COP(=O)(CO[C@H](C)Cn2cnc3c(N(C(C)=O)C(C)=O)ncnc32)OC1 (stereo partly drawn) [Example 14, (R)-ethyl 2-(2-(((1-(6-(N-acetylacetamido)-9H-purin-9-yl)propan-2-yl)oxy)methyl)-2-oxo-1,3,2-dioxaphosphinan-5-yl)acetate]	50 to 80	50 to 80		
CCOC(=O)CC1COP(=O)(CO[C@H](C)Cn2cnc3c(N)ncnc32)OC1 (stereo partly drawn) [Example 2, (R)-ethyl 2-(2-(((1-(6-amino-9H-purin-9-yl)propan-2-yl)oxy)methyl)-2-oxo-1,3,2-dioxaphosphinan-5-yl)acetate]	≤ 30	≤ 30		
COC(=O)CCC1COP(=O)(CO[C@H](C)Cn2cnc3c(N)ncnc32)OC1 (stereo partly drawn) [Example 6, (R)-methyl 3-(2-(((1-(6-amino-9H-purin-9-yl)propan-2-yl)oxy)methyl)-2-oxido-1,3,2-dioxaphosphinan-5-yl)propanoate]	50 to 80	> 80		
CCCCCCOC(=O)CC1COP(=O)(CO[C@H](C)Cn2cnc3c(N)ncnc32)OC1 (stereo partly drawn) [Example 5b, (R)-hexyl 2-(2-(((1-(6-amino-9H-purin-9-yl)propan-2-yl)oxy)methyl)-2-oxo-1,3,2-dioxaphosphinan-5-yl)acetate]	30 to 50	≤ 30		
CCOC(=O)CC1COP(=O)(CO[C@H](C)Cn2cnc3c(NC(=O)CC)ncnc32)OC1 (stereo partly drawn) [Example 15, (R)-ethyl 2-(2-oxo-2-(((1-(6-propionamido-9H-purin-9-yl)propan-2-yl)oxy)methyl)-1,3,2-dioxaphosphinan-5-yl)acetate]	≤ 30	≤ 30		
CC(C)OC(=O)CCC1COP(=O)(CO[C@H](C)Cn2cnc3c(N)ncnc32)OC1 (stereo partly drawn) [Example 8, (R)-isopropyl 3-(2-(((1-(6-amino-9H-purin-9-yl)propan-2-yl)oxy)methyl)-2-oxo-1,3,2-dioxaphosphinan-5-yl)propanoate]	50 to 80	50 to 80		
CCOC(=O)CC1COP(=O)(CO[C@H](C)Cn2cnc3c(NC(C)=O)ncnc32)OC1 (stereo partly drawn) [Example 13, (R)-ethyl 2-(2-(((1-(6-acetamido-9H-purin-9-yl)propan-2-yl)oxy)methyl)-2-oxo-1,3,2-dioxaphosphinan-5-yl)acetate]	50 to 80	≤ 30		
CC(C)OC(=O)CCC1COP(=O)(CO[C@H](C)Cn2cnc3c(NC(=O)c4ccccc4)ncnc32)OC1 (stereo partly drawn) [Example 25, (R)-isopropyl 3-(2-(((1-(6-benzamido-9H-purin-9-yl)propan-2-yl)oxy)methyl)-2-oxo-1,3,2-dioxaphosphinan-5-yl)propanoate]	50 to 80	50 to 80		
CCOC(=O)CC1COP(=O)(CO[C@H](C)Cn2cnc3c(NC(=O)c4ccccc4)ncnc32)OC1 (stereo partly drawn) [Example 19, (R)-ethyl 2-(2-(((1-(6-benzamido-9H-purin-9-yl)propan-2-yl)oxy)methyl)-2-oxo-1,3,2-dioxaphosphinan-5-yl)acetate]	≤ 30	≤ 30		
C[C@H](Cn1cnc2c(N)ncnc21)OCP1(=O)OCC(CCC(=O)OC2CCCC2)CO1 (stereo partly drawn) [Example 10, (R)-cyclopentyl 3-(2-(((1-(6-amino-9H-purin-9-yl)propan-2-yl)oxy)methyl)-2-oxo-1,3,2-dioxaphosphinan-5-yl)propanoate]	50 to 80	≤ 30		
C[C@H](Cn1cnc2c(N)ncnc21)OCP1(=O)OCC(CC(=O)OC2CCCC2)CO1 (stereo partly drawn) [Example 5, (R)-cyclopentyl 2-(2-(((1-(6-amino-9H-purin-9-yl)propan-2-yl)oxy)methyl)-2-oxo-1,3,2-dioxaphosphinan-5-yl)acetate]	≤ 30	≤ 30		
CCOC(=O)CC1COP(=O)(CO[C@H](C)Cn2cnc3c(NC(=O)C(C)C)ncnc32)OC1 (stereo partly drawn) [Example 16, (R)-ethyl 2-(2-(((1-(6-isobutyramido-9H-purin-9-yl)propan-2-yl)oxy)methyl)-2-oxo-1,3,2-dioxaphosphinan-5-yl)acetate]	≤ 30	≤ 30		
